Laboratory results as given in patent US20240301408A1, “MICRORNA 195 COMPOSITIONS AND METHODS FOR TREATING COGNITIVE IMPAIRMENT” (UNITED STATES GOVERNMENT AS REPRESENTED BY THE DEPARTMENT …, priority 2021, published 2024).

How the values were obtained:
[1] = tested on: dynamin 1 (dyn1); test: dynamin 1 protein levels in cultured neurons after AAV2 miRNA over-expression; type: cell-based, mouse; details: neurons over-expressing miRNA; N=4/group
Method: Mouse Neuronal and human iPSC culture. Primary cortical neurons were cultured (Zhu L et al., Proc Natl Acad Sci USA 2015, and Zhu L et al., J Biol Chem 2013) before being fixed and stained for confocal microscopy analysis (Zeiss LSM) (Berg I et al., Nat Protoc 2010). In some conditions, bovine serum albumin (BSA) or receptor-associated protein (RAP) was included in the cultured media (N=3/group). Alternatively, cultured neurons were transfected with adeno-associated virus 2 (AAV2)-containing miR-195-5p or miR-374 or scramble controls for 5 days before subjected to analysis. […]
(§1) Brain and neuronal sample preparation and biochemical analysis. […] Levels of Aβ42, Aβ40, pTau, Tau and ApoE were determined using high-sensitive ELISA kits. […]
(§2) Statistical analysis. […] Levels of miR-195-5p and miR-374 were normalized to U6 and RNU6B (internal controls) while synj1 mRNA normalized to GAPDH and 18s, and then expressed as Log2fold of changes when compared to controls. Levels of synj1, dyn1, pTau, Tau, and holoAPP were normalized to β-actin levels and expressed as a percentage of the control. Absolute Aβ42, Aβ40, pTau, Tau, and ApoE concentrations were quantitatively determined by ELISA and expressed as a percentage of the control. […] Pearson correlation coefficients were calculated to determine the linear relationship between the two variables. […]

[2] = tested on: phospho-Tau (pTau); test: brain pTau levels in ApoE KI mice after miR-195 over-expression; type: in vivo, mouse
Method: (§3) Stereotaxic injection and behavior studies. Eight to nine weeks old male and female ApoE3^+/+ and ApoE4^+/+ KI mice without 5×FAD background (N=19-23/group), or with 5×FAD background (N=15-17/group) were placed in the stereotaxic apparatus with AAV2 or scramble virus administered into the dorsal CA1 regions of bilateral hippocampal brain regions using pressure injection (Labonte B et al., Nat Med 2017, and Passini M A et al., The Journal of neuroscience 2006). Injection volumes (0.5-2.0 μl) were delivered over 10 min to avoid tissue damage. […]
as §1, §2

[3] = tested on: ApoE; test: brain ApoE levels in ApoE KI mice after miR-195 over-expression; type: in vivo; details: ApoE4+/+ or ApoE3+/+ mouse brains
Method: as §3, §1, §2

[4] = tested on: Aβ / amyloid plaque; test: brain oligomer Aβ42, soluble Aβ and amyloid plaque burden in EFAD mice after miR-195-5p over-expression; type: in vivo, mouse
Method: Stereotaxic injection and behavior studies. Eight to nine weeks old male and female ApoE3^+/+ and ApoE4^+/+ KI mice without 5×FAD background (N=19-23/group), or with 5×FAD background (N=15-17/group) were placed in the stereotaxic apparatus with AAV2 or scramble virus administered into the dorsal CA1 regions of bilateral hippocampal brain regions using pressure injection (Labonte B et al., Nat Med 2017, and Passini M A et al., The Journal of neuroscience 2006). Injection volumes (0.5-2.0 μl) were delivered over 10 min to avoid tissue damage. Six to nine months after viral delivery, mice were tested with the NOR task (Zhu L et al., Proc Natl Acad Sci USA 2015, Elder G A et al., J Neurotrauma 2012, and Howlett D R et al., Brain Res 2004). Mice were randomized for genotype and sex, and blinded throughout the behavior data collection and analysis, surgical manipulations, and sample collection.
Brain and neuronal sample preparation and biochemical analysis. Snap-frozen mouse hemi-brains or cultured neurons were harvested in lysis buffer (Lane R F et al., The Journal of neuroscience 2010) and processed via step-wise solubilization (Lane R F et al., The Journal of neuroscience 2010, and Kawarabayashi T et al. The Journal of neuroscience 2001) followed by SDS-PAGE to determine levels of synj1, dyn1, holoAPP, and CTFs. Levels of Aβ42, Aβ40, pTau, Tau and ApoE were determined using high-sensitive ELISA kits. Some tissue was used for miRNA and RNA extraction followed by qPCR and RNA-seq analysis. […]
as §2

[5] = tested on: lysosomes of ApoE4+/+ / ApoE3+/+ neurons; test: lysosome size and number (Lysotracker, confocal) in neurons of iPSC-derived neuron and astrocyte co-culture; type: cell-based, human
Method: (§4) Mouse Neuronal and human iPSC culture. Primary cortical neurons were cultured (Zhu L et al., Proc Natl Acad Sci USA 2015, and Zhu L et al., J Biol Chem 2013) before being fixed and stained for confocal microscopy analysis (Zeiss LSM) (Berg I et al., Nat Protoc 2010). In some conditions, bovine serum albumin (BSA) or receptor-associated protein (RAP) was included in the cultured media (N=3/group). Alternatively, cultured neurons were transfected with adeno-associated virus 2 (AAV2)-containing miR-195-5p or miR-374 or scramble controls for 5 days before subjected to analysis. The ApoE4^+/+ and ApoE3^+/+ iPSCs were differentiated into neural progenitor cells (NPCs) by dual SMAD inhibition followed by neural rosette selection and forebrain-specific patterning by 20 ng/ml FGF2 exposure (Bowles K R et al., PloS one 2019, and Tcw J et al., Stem cell reports 2017). These NPCs were purified by MACS for CD271^−/CD133^+ (Bowles K R et al., PloS one 2019) and differentiated to cortical neurons (Bardy C et al., Proc Natl Acad Sci USA 2015, and Paquet D et al., Nature 2016) and a homogeneous population of astrocytes (Tcw J et al., Stem cell reports 2017, and Shaltouki A et al., Stem Cells 2013) before subjected to viral transfection and confocal microscopy analysis. Alternatively, mouse cortical neurons derived from ApoE4^+/+ and ApoE3^+/+ KI mice with synj1^+/+ or synj1^−/− genotypes were co-cultured with ApoE4^+/+ and ApoE3^+/+ iPSC-derived pure astrocytes. In some experiments, cultured neurons were transfected with AAV2-containing miR-195-5p, scramble controls or miR195 inhibitors that specifically prevent miR-195-5p binding to its target mRNA before co-culturing with iPSC-derived astrocytes. Cultured iPSC-derived neurons and astrocytes were then incubated with lysotracker red for various time periods before fixation and double-stained for pTau and a nuclear marker DAPI (blue) for confocal microscopy analysis (Zeiss). N=4-5/condition.

[6] = tested on: lysosomes of ApoE4+/+ astrocytes; test: lysosome size (Lysotracker, confocal) in iPSC-derived astrocytes; type: cell-based, human; details: control 36.5 μm^2
Method: as §4, with “Alternatively, mouse cortical neurons derived from ApoE4^+/+ and ApoE3^+/+ KI mice with synj1^+/+ or synj1^−/− genotypes were co-cultured with ApoE4^+/+ and ApoE3^+/+ iPSC-derived pure astrocytes. In some experiments, cultured neurons were transfected with AAV2-containing miR-195-5p, scramble controls or miR195 inhibitors that specifically prevent miR-195-5p binding to its target mRNA before co-culturing with iPSC-derived astrocytes. Cultured iPSC-derived neurons and astrocytes were then incubated with lysotracker red for various time periods before fixation and double-stained for pTau and a nuclear marker DAPI (blue) for confocal microscopy analysis (Zeiss). N=4-5/condition.” left out

[7] = ApoE4+/+ and ApoE3+/+ FAD mouse brains

Sequence: UAGCAGCACAGAAAUAUUGGC (chemistry not given here) [miR-195-5p, over-expressed via AAV2-containing miR-195-5p from ABM Inc]
- dyn protein levels [1]: 97.7 % of controls
- pTau levels ([2]; ApoE3+/+ mice): Trends of reduction
- brain phospho-Tau (pTau) levels ([2]; ApoE4+/+ KI mouse hippocampus, scramble controls 81.3): 39.1 % of controls
- ApoE levels [3]: No significant changes
- ApoE levels ([3]; listed as miR-195): no significant changes
- amyloid plaque burden (plaque numbers and plaque density) [4, 7]: dramatic reduction
- brain oligomer Aβ42 measured by ELISA [4, 7]: dramatic reduction
- soluble Aβ40, Aβ42 levels ([4]; E4FAD and E3FAD mouse brains): no significant changes
- lysosomal phenotypes compared to baseline ([5]; ApoE3+/+ neurons): No significant differences
- neurons with lysosome diameter between 0 to 10 μm ([5]; ApoE4+/+ neurons): 53.3%
- neurons with >10 lysosomes/cell ([5]; ApoE4+/+ neurons, baseline 18.4%): 1.7%
- average size of lysosomes (area) [6]: no significant differences
